Laboratory results reported in US7022693B2, “Treatment of lipodystrophy” (Ark Therapeutics Ltd., priority 2001, dated 2006).

System: ACE activity in T-cells
Assay: ACE activity in T-cells after administration of a protease inhibitor
Type: cell-based

CC(C)C[C@H](NC(=O)[C@@H](O)[C@H](N)Cc1ccccc1)C(=O)O [bestatin]
ACE activity in T-cells: increased ACE activity
